Measurements taken from a melting point compilation (Tetko et al.; mined from patent text by program, amines drawn as free bases though some values may be those of a salt).

| Structure (SMILES) | melting point [°C] |
| --- | --- |
| O=C(c1c(F)cccc1F)N1COCN(c2ccc(S(=O)C(F)(C(F)(F)F)C(F)(F)F)cc2F)C1=O (configuration not stated) | 40 to 45 |
| CCOC(=O)C(Cc1ccc(OCCBr)cc1)OCC (configuration not stated) | 110 to 114 |
| COc1cc(C(=O)C=Cc2cc(O)c(O)c([N+](=O)[O-])c2)cc(OC)c1OC | 213 to 216 |
| Cc1c(S(C)(=O)=O)ccc(C(=O)O)c1Cl | 230 to 231 |
| CC(C)(O)c1cc(-c2ccc(Cl)cc2)nc2ccnn12 | 113 to 115 |
| Cc1cccc(C)c1OP(=O)(c1ccccc1)c1cc(O)ccc1O (configuration not stated) | 172 |
| COc1ccc(P(=O)(c2ccc(OC)cc2)c2ccc(OC)cc2)cc1 | 145 |
| Cc1cccc(-c2nc(C(C)C)[nH]c2-c2ccc(F)c(-c3ccc(NS(=O)(=O)C4CC4)cc3)c2)n1 | 119 to 129 |
| COC(=O)C1Oc2cc(Cl)ccc2C(C)(c2ccccc2)O1 (configuration not stated) | 144 |
| C[Si](C)(C)c1[nH]c2ccccc2c1C1CC1 | 78 to 81 |
| CCOC(=O)COc1cccc(/C=C/c2nc3ccccc3s2)c1 | 150 to 151 |
| CC(=O)c1ccc(C(C)Oc2cncc(C(=O)Nc3ccc(C#N)cc3)c2)cc1 (configuration not stated) | 181 to 183 |
| CCOC(=O)Cc1sc(Sc2cc(C(=O)OC)nc3ccccc23)nc1C | 94 to 95 |
| COc1ccc2c3c(cn2S(=O)(=O)c2ccc(C)cc2)CC(N=[N+]=[N-])C(=O)c13 (configuration not stated) | 147 to 148 |
| CC(C)c1ccc(C#CC(C)N(O)C(N)=O)cc1 (configuration not stated) | 154 to 156 |
| CCNC(=O)c1ccc(N2CCNCC2)cc1 | 131 to 134 |
| O=C1c2ccccc2C(=O)c2c1cccc2N1CCNCC1 | 190 |
| CN(C)C(=O)c1ccccc1I | 33 to 36 |
| COCCOCc1nc2c(N)nc3ccccc3c2n1CCOc1ccccc1 | 170 to 172 |
| CC(=O)n1[nH]c(=O)n(-c2ccc(Cl)cc2)c1=O | 201 to 203 |
| CC(C)(C)n1nc(-c2ccccc2)c(C(N)=O)c1N | 177 to 178 |

| Structure (SMILES) | melting point [°C] |
| --- | --- |
| CCC1(N2C(=O)c3c(F)c(F)c(F)c(F)c3C2=O)C(=O)NC(=O)N(c2ccccc2)C1=O (configuration not stated) | 218 to 220 |
| COc1ccc2nc(-c3nc(N)nc(N)n3)sc2c1 | > 250 |
| CC(C)(COc1ccc(Cl)cc1)C(=O)C(CC1CCCCC1)n1cncn1 (configuration not stated) | 58 to 60 |
| CCCC1(C(=O)O)c2ccccc2-c2ccccc21 | 120 to 122 |
| CCCN(CCCNc1c(Cl)cn[nH]c1=O)CCOc1cccc2c1OCCO2 | 87 to 89 |
| CCOC(=O)OC1CCN(C(=O)OCC)Cc2c1nc1ccccc1c2C (configuration not stated) | 40 |
| C=CCCCCCCCCN=C=O | 94 to 97 |
| CCOC(=O)N1c2cc(OC)c(OC)cc2C(=O)C(=CNC)C1C (configuration not stated) | 154 to 156 |
| CC1(C)CC(=O)C2=C(C1)NC1=C(C(=O)CC(C)(C)C1)C2c1cc(Cl)cc(Cl)c1 | 288 to 290 |
| Nc1sc2c(c1C(=O)c1ccc(Br)cc1)CCN(C(=O)Nc1ccccc1)C2 | 89 to 90 |
| CC1(C)OCCN1C(=O)C(Cl)Cl | 113 to 115 |
| CN1CCc2nc3ccc(Cl)cc3c(Oc3ccccc3)c2C1 | 182 to 184 |
| CC1(C)CCC(C)(C)c2cc3c(cc21)OCC3(C)c1cc(CO)cs1 (configuration not stated) | 127 |
| CC(C)(C)OC(=O)/C=C1/CCCCC1n1nc(-c2c(-c3ccccc3)nn3ccccc23)ccc1=O (configuration not stated) | 110 to 116 |
| Cc1cc(C2=C(C=O)C(C)(C)CC(C)(C)C2)ccc1F | 50.5 to 51.5 |
| Cc1ccc(C)n1C1=CC2=C(CC1)CCc1[nH]c(=O)c(=O)[nH]c12 | > 265 |
| COc1cc(Br)nc(C(=O)O)c1OCc1ccccc1 | 134 to 135 |
| CCCCCCCCCCCCCCCCNc1ccc(C(=O)OCC(CO)OC(C)=O)cc1 (configuration not stated) | 67 |
| O=[N+]([O-])c1ccc(Oc2ccc(C34CC5CC(C3)CC(c3ccc(Oc6ccc([N+](=O)[O-])c(O)c6)cc3)(C5)C4)cc2)cc1O | 118 to 122 |
| Nc1c(Br)cc(Cc2cc(Br)c(N)c(Br)c2)cc1Br | > 250 |
| COC(c1nnc2n1-c1ccc(Cl)cc1C(c1ccccc1)=NC2)C1COC(C)(C)O1 (configuration not stated) | 130 to 134 |

| Structure (SMILES) | melting point [°C] |
| --- | --- |
| O=C(Cl)N1CC(Oc2ccc(Cl)cc2)C1 | 78 to 80 |
| CCc1noc(C)c1-c1[nH]c2ccccc2c1CC(=O)N(C)C | 176 to 178 |
| C=CCOc1cccc(-c2cn3ccc4ccccc4c3n2)c1 | 83 to 85 |
| COc1nc(N)nn1C | 177 to 180 |
| Cc1cc(C)c(OC(=O)NC2CC2c2ccc(-c3ncn(-c4ccc(OC(F)(F)F)cc4)n3)cc2)c(C)c1 (configuration not stated) | 199 to 202 |
| CCCC1(CCC(C)=O)Cc2cc(CC(=O)O)c(Cl)c(Cl)c2C1=O (configuration not stated) | 137 to 139 |
| CCC(NC(C)=O)C(=O)O (configuration not stated) | 128 to 130 |
| Cc1cccc(C(C)(C)O)c1N | 78 to 79 |
| CCOc1cc(N2CCOCC2)c(OCC)cc1N=NNN1CCOCC1 | 137 to 139 |
| COc1ccc(/C=C/C(=O)C2C(=O)CC(c3ccc(OC)cc3)C([N+](=O)[O-])C2c2ccco2)cc1 (configuration not stated) | 192 |
| COc1ccc(Cl)cc1NC(=O)NCc1ccc2c(c1)CN(C1CCC(=O)NC1=O)C2=O (configuration not stated) | 283 to 285 |
| Cc1cn(-c2ccc(N)c(C)c2)c(C)n1 | 92 to 96 |
| O=C1CCCc2c(Cl)cccc2-c2ccccc21 | 118 |
| Nc1cccc(Nc2ncnc3[nH]cc(C(=O)c4ccccc4)c23)n1 | > 300 |
| COC1(c2cccc(Sc3cc(C)c4c(ccc(=O)n4C)c3)c2)CCOCC1 | 101 to 102 |
| O=C(NCCc1ccccn1)Nc1cc(N2CC(c3ccccc3)CC2=O)ccn1 (configuration not stated) | 202 to 204 |
| Cc1nc(N2CCC(c3ccccc3)CC2)c([N+](=O)[O-])c(=O)[nH]1 | 210 to 213 |
| O=C(O)Cc1ccc(NC(=O)C(COc2ccc(Cl)cc2)NS(=O)(=O)c2ccc(Cl)cc2)cc1 (racemic) | 205 to 207 |
| CC(=O)Oc1ccc(C2=COc3ccccc3O2)cc1 | 123 to 125 |

The remaining lines, values ahead:

| melting point [°C] | Structure (SMILES) |
| --- | --- |
| 81 to 82 | CC(C)(CO)CCCNC(=O)NCCCC(C)(C)CO |
| 216 | CC(C)(C)c1cccc(S(=O)(=O)n2c(Cc3ccc(C(=O)O)cc3)cc3c(Cl)c(Cl)ccc32)c1 |
| 189 | O=C(NC(=O)N1CCC(Oc2ccc(Cl)cc2)CC1)c1ccc(O)cc1 |
| 80 | CCCCCc1ccc(-c2ccc(CC#N)cc2)cc1 |
| 65 to 75 | CCOC(=O)CC(C#N)(CC(=O)OCC)c1ccc(OC)cc1 |
| 192 to 195 | COc1ccc(OCC(O)CN2CCN(C(N)=O)CC2)cc1 (configuration not stated) |
| 124 | CCc1cc(C)cc(CC)c1CC(=O)O |
| 165 | Nc1ccc2ccc(Oc3cccc(F)c3)nc2n1 |
| 139 to 140 | O=C(NCC1CC(=O)N(Cc2ccccc2)C1)Nc1ccc(Cl)cc1 (configuration not stated) |
| 155 to 170 | CCCCc1nc2ccccn2c(=O)c1-c1ccc(NC[C@H]2CCCO2)cc1 |
| 179 | CC(=O)C1Cc2c(nc3ccccc3c2C)C(N2CCOCC2)CN1 (configuration not stated) |
| 227 to 229 | COc1ccccc1Oc1c(NS(=O)(=O)c2ccc3c(c2)OCO3)nc(-c2ccnc(-c3nnn[nH]3)c2)nc1OCCO |
| 120 to 122 | CCSc1ccc(-c2ccccn2)c2c1C(=O)CC(C)C2 (configuration not stated) |
| 233 to 234 | CCc1cc(-c2nc(C)c(-c3ccnc(Nc4ccc(S(=O)(=O)NCCO)cc4)n3)s2)ccn1 |
| 159 to 160 | CCOC(=O)N1C(=O)NC(C)=C(C(=O)OC)C1c1cccc(Cl)c1Cl (configuration not stated) |
| 197 to 202 | CCC1Cn2c(ncc(C(N)=O)c2=O)-c2ccccc21 (configuration not stated) |
| 96 to 110 | COc1ccc(C2CC(c3ccc(O)cc3)C2)cc1 (configuration not stated) |
| 212 to 216 | Cc1nc(N)nc(N)c1-c1cc(Br)ccc1Cl |
| 172 to 173 | CCc1[nH]n(C2CCCC2)c2nc(Cc3ccc(OC)cc3)nc(=O)c1-2 |
| 157 to 159 | O=C(O)c1ccc(OCC(O)c2cc3cc(Cl)ccc3o2)cc1 (configuration not stated) |
| 105 | CSc1sc(C(N)=O)c(C(C)C)c1-c1oncc1C |

| melting point [°C] | Structure (SMILES) |
| --- | --- |
| 129 to 131 | COc1ccccc1S(=O)C1CC(=O)N1CC(=O)CCc1ccccc1 (configuration not stated) |
| > 300 | O=c1[nH]c2cc(Cl)ccc2n(O)c1=O |
| 148 | O=Cc1c(Br)nc(-c2ccccc2)n1Cc1cc2c(cc1Cl)OCO2 |
| 117 to 118 | CC(C)=CCCC(C)C1CCC2C3CCC4CC(O)CCC4(C)C3CCC12C (configuration not stated) |
| 252 to 253 | COc1cc2ncnc(NC3=CC(=O)C4(c5ccccc5)OC4C3=O)c2cc1OC (configuration not stated) |
| 79 to 80 | FC(F)(F)c1cc(Br)c(OCc2ccccc2)c(OCc2ccccc2)c1 |
| 74 to 75 | CCCCCCCCCCc1ccc(NC(=O)c2cccc(-c3ccccc3)c2O)cc1 |
| 95 to 96 | Cc1nc(C(C)C)c(Sc2cc(Cl)cc(Cl)c2)n1C |
| 83 to 84 | COc1cccc(Nc2ccnc(Nc3cc(OC)c(OC)c(OCc4ccccc4)c3)n2)c1 |
| 159 to 161 | COc1ccc2c(c1)CC[C@@H]1[C@@H]2CC[C@@]2(C)[C@H]1CCC21C=CCO1 (some centres not stated) |
| 156 to 157 | CCN(Cc1nc2cc(OC)c(OC)cc2c(-c2ccc(OC)c(OC)c2)c1C(C)=O)C(C)(C)C |
| 94 to 96 | COC(=O)c1c(C)nc(C)c(C(=O)OC)c1-c1ccccc1F |
| 204 to 205 | CC(C)n1c(=O)n(C(=O)NC2CCN(C)CC2)c2ccccc21 |
| 232 to 233 | O=c1[nH]c2cccc(C(F)(F)F)c2c(=O)o1 |
| 292 to 293 | N#Cc1c(-c2ccc(N)cc2)cc(-c2ccccc2O)nc1NC(=O)c1cccs1 |
| 208 to 210 | CNC(=O)c1c(C)nc(C)n1Cc1ccc2oc(-c3ccccc3NS(=O)(=O)C(F)(F)F)c(Br)c2c1 |
| 143 to 146 | COc1ccccc1Cn1c(=O)[nH]c2cc(Cl)cc(Cl)c2c1=O |
| 245 to 250 | Cc1ccc(C=C2SC(=S)N(CC(=O)O)C2=O)cc1 |
| 171 to 172 | CSC1C(=O)Nc2c(C(=O)c3ccc(F)cc3)cc(F)cc21 (configuration not stated) |
| 167 to 168 | O=C1NC(=O)C(Nc2cccc(CCOCc3ccc4ccccc4n3)c2)S1 (configuration not stated) |
